What was measured:
human AT1 cells = assay: Cell activation study: intracellular ROS production (H2DCFDA); format: cell-based; settings: positive control, 10 μg/ml
Description: A cell activation study was conducted to determine whether NP uptake causes oxidative stress in the cells in vitro. For example, human AT1 cells were seeded in tissue culture plates and incubated overnight as described earlier. The next day, cells were exposed to two different concentrations of each NP (250 μg/ml and 1000 μg/ml) and incubated for another 24 hours. Cells exposed to 10 μg/ml lipopolysaccharide (LPS) were considered as a positive control while cells exposed to media only served as the negative control. To detect the Intracellular Reactive Oxygen Species (ROS) production on NP exposure, cells were then washed thrice with PBS and incubated with 5 μM of 2′,7′-dichlorodihydrofluorescein diacetate (H2DCFDA) solution in PBS for 30 minutes. The cells were then washed again with PBS and fluorescence was measured at λex of 485 nm and […] using a spectrophotometer.
(§1) To study cytokine production, the concentration of interleukin-1 alpha (IL-1∞), interleukin-1 beta (IL-1β), interleukins 2, 4, 6, 8, 10, 12, 10A, and tumor necrosis factor-alpha (TNF-α) in the medium was measured using Multi-Analyte ELISAArray Kit (SA Biosciences, Frederick, Md.) according to the manufacturer's directions.

AT1 cells [1] = assay: Cell activation study: cytokine ELISA; format: cell-based, human; settings: 24 hours; MDNPs at 1 mg/mL; LPS positive control
Description: as §1
The cells stimulated using LPS (positive control) produced 0.25 ng/ml IL-6, 1.27 ng/ml IL-8, 0.24 ng/ml IL-10 and 0.11 ng/ml TNF-α inflammatory cytokines.

[2] = system: folate receptors on AT1 cells; assay: Folic acid binding, Resonant Sensors Bioassay (peak shift); parameters: species or system human; settings: 0-15 μM, 3 hours
Description: (§2) The binding of folic acid to folate receptors was studied using Resonant Sensors Bioassay system (e.g., available from Resonant Sensors Inc. (RSI), located in Arlington, Tex.). A549 and H460 lung cancer cells as well as AT1 cells were seeded at a density of 10,000 cells/well in RSI sensor 96-well plates, which were incubated at […] for 24 hours to allow cell attachment. For folic acid binding efficiency studies, the cells were incubated with folic acid at varying concentrations (i.e., 0, 0.1, 1, 5, 10, 15 μM) for 3 hours in the RSI system and peak shift with cell binding over time was studied.

[3] = system: folate receptors on A549 lung cancer cells; assay: as above; settings: 0-15 μM, 3 hours
Description: as §2

[4] = system: folate receptors on H460 lung cancer cells; assay: as above; settings: 0-15 μM, 3 hours
Description: as §2

[5] = system: human dermal fibroblasts (HDFs); assay: 24-hour cytocompatibility (MTS and Picogreen dsDNA); format: cell-based; settings: 10 μM
Description: (§3) Human dermal fibroblasts (HDFs) and AT1 cells were seeded at a density of 5000 cells/well in a 96 well plate and allowed to attach at 37° C. and 5% CO2 for 24 hours. […] Following incubation, the cells were washed with 1× sterile PBS and cell viability was assessed using MTS and Picogreen dsDNA assays (e.g., available from Life Technologies, located in Grand Island, N.Y.) according to manufacturer's instructions. MTS assay measures the percentage of cells alive in each well compared to the controls. These findings were validated using Picogreen dsDNA assay which calculates the amount of total cell DNA present in each well compared to the control.

AT1 cells [6] = assay: as above; format: cell-based, human; settings: 10 μM
Description: as §3

Row | Molecule | ROS production, % of the control (human AT1 cells) | IL-6 produced (AT1 cells [1]) | IL-8 produced (AT1 cells [1]) | IL-10 produced (AT1 cells [1]) | TNF-α produced (AT1 cells [1]) | peak shift [2] | peak shift [3] | peak shift [4] | cytocompatibility (MTS) [5] | cytocompatibility (MTS) (AT1 cells [6])
1 | lipopolysaccharide [LPS] | 425% | 0.25 ng/mL | 1.27 ng/mL | 0.24 ng/mL | 0.11 ng/mL |  |  |  |  | 
2 | Nc1nc2ncc(CNc3ccc(C(=O)N[C@@H](CCC(=O)O)C(=O)O)cc3)nc2c(=O)[nH]1 [folic acid] |  |  |  |  |  | no dose-dependent increase in peak shift | increase in peak shift | comparatively larger peak shift | non-toxic | non-toxic
